# How the values were obtained:
# [1] = system: COX-1; experiment: COX-1 inhibitory activity (Table 3); format: biochemical; set-up: dose or concentration left out as unconfirmed
# [2] = system: COX-1 and COX-2; details: cited from earlier work
# [3] = system: bladder cancer PDX BL0269; experiment: tumor growth in NSG-PDX bladder cancer mouse model BL0269; format: in vivo, NSG mice
# Protocol: Materials and Supplies. Bladder cancer subject-derived xenograft (PDX) models were provided by The Jackson Laboratory (JAX, Bar Harbor, Me.). […] All experiments utilized PDX models within the first five passages. […] Gemcitabine was purchased from LC Laboratories (Woburn, Mass.). […] The cell lines have not been tested and authenticated by the authors.
# PDX bladder cancer. NSG PDX studies were performed at the University of California Davis with IACUC approval. […] Gemcitabine was dissolved in 0.9% saline and administered at a dose of 150 mg/kg (IP, weekly) for 4 weeks. Animal weight and tumor size were measured twice per week. […] The percentage of tumor growth inhibition (TGI) was calculated as follows; 100%×(1−[(V^treated(final day)−V^treated(initial day))/(V^control(final day)−V^control(initial day))]), where V is tumor volume.
# Statistics. Data are presented as mean±standard error of the mean (SEM) or mean±standard deviation (SD). Group comparisons were carried out using one-way analysis of variance or Student's t test. Survival analysis was performed using the Kaplan-Meier method. A p value of less than 0.05 was considered statistically significant.
smiles,measurement,setting,value
"NS(=O)(=O)c1ccc(-n2nc(CCCNC(=O)NC34CC5CC(CC(C5)C3)C4)cc2-c2ccccc2)cc1 [compound 2326, 4-{3-[3-(3-Adamantan-1-yl-ureido)-propyl]-5-phenyl-pyrazol-1-yl}-benzenesulfonamide]",COX-1 (% inhibition),[1],6.7%
"CS(=O)(=O)c1ccc(-n2nc(CCCNC(=O)Nc3cccc(C(F)(F)F)c3)cc2-c2ccccc2)cc1 [compound 1862, 1-{3-[1-(4-Methanesulfonyl-phenyl)-5-phenyl-1H-pyrazol-3-yl]-propyl}-3-(3-trifluoromethyl-phenyl)-urea]",COX-1 (% inhibition),[1],6.4%
"CC(C)(C)c1cc(CNC(=O)Nc2cccc(C(F)(F)F)c2)nn1-c1ccc(S(C)(=O)=O)cc1 [compound 2106, 1-[5-tert-Butyl-1-(4-methanesulfonyl-phenyl)-1H-pyrazol-3-ylmethyl]-3-(3-trifluoromethyl-phenyl)-urea]",COX-1 (% inhibition),[1],2.4%
"NS(=O)(=O)c1ccc(-n2nc(CCCNC(=O)Nc3ccccc3)cc2-c2ccccc2)cc1 [compound 2245, 4-{5-Phenyl-3-[3-(3-phenyl-ureido)-propyl]-pyrazol-1-yl}-benzenesulfonamide]",COX-1 (% inhibition),[1],15.8%
"NS(=O)(=O)c1ccc(-n2nc(CNC(=O)Nc3cccc(C(F)(F)F)c3)cc2-c2ccccc2)cc1 [compound 2107, 4-{5-Phenyl-3-[3-(3-trifluoromethyl-phenyl)-ureidomethyl]-pyrazol-1-yl}-benzenesulfonamide]",COX-1 (% inhibition),[1],16.9%
"CC(=O)Oc1ccccc1C(=O)O [Aspirin, aspirin]",COX-2 (IC50)/COX-1 (IC50) ratio,[2],0.32
"CS(=O)(=O)c1ccc(-n2nc(CNC(=O)Nc3cccc(C(F)(F)F)c3)cc2-c2ccccc2)cc1 [compound 1861, 1-[1-(4-Methanesulfonyl-phenyl)-5-phenyl-1H-pyrazol-3-ylmethyl]-3-(3-trifluoromethyl-phenyl)-urea]",COX-1 (% inhibition),[1],7.8%
"CS(=O)(=O)c1ccc(-n2nc(CNC(=O)NC34CC5CC(CC(C5)C3)C4)cc2-c2ccccc2)cc1 [compound 1860, 1-Adamantan-1-yl-3-[1-(4-methanesulfonyl-phenyl)-5-phenyl-1H-pyrazol-3-ylmethyl]-urea]",COX-1 (% inhibition),[1],12.7%
"NS(=O)(=O)c1ccc(-n2nc(CCCNC(=O)NC3CCCCCC3)cc2-c2ccccc2)cc1 [compound 2247, 4-{3-[3-(3-Cycloheptyl-ureido)-propyl]-5-phenyl-pyrazol-1-yl}-benzenesulfonamide]",COX-1 (% inhibition),[1],10.2%
"NS(=O)(=O)c1ccc(-n2nc(NC(=O)Nc3cccc(C(F)(F)F)c3)cc2-c2ccccc2)cc1 [compound 2121, 4-{5-Phenyl-3-[3-(3-trifluoromethyl-phenyl)-ureido]-pyrazol-1-yl}-benzenesulfonamide]",COX-1 (% inhibition),[1],33.9%
COc1ccc2c(c1)c(CC(=O)O)c(C)n2C(=O)c1ccc(Cl)cc1 [indomethacin],COX-2 (IC50)/COX-1 (IC50) ratio,[2],33
"NS(=O)(=O)c1ccc(-n2nc(CCCNC(=O)Nc3ccc(OC(F)(F)F)cc3)cc2-c2ccccc2)cc1 [compound 2329, 4-(5-Phenyl-3-{3-[3-(4-trifluoromethoxy-phenyl)-ureido]-propyl}-pyrazol-1-yl)-benzenesulfonamide]",COX-1 (% inhibition),[1],13.8%
"O=C(NC12CC3CC(CC(C3)C1)C2)N[C@H]1CC[C@H](Oc2ccc(C(=O)O)cc2)CC1 [t-AUCB, trans-4-[4-(3-Adamantan-1-yl-ureido)-cyclohexyloxy]-benzoic acid]",potentiation of cisplatin with respect to inhibiting tumor growth,[3]; combined with cisplatin 2 mg/kg,moderate additive effect
"NS(=O)(=O)c1ccc(-n2nc(CCCNC(=O)Nc3cccc(C(F)(F)F)c3)cc2-c2ccccc2)cc1 [compound 2246, 4-(5-Phenyl-3-{3-[3-(3-trifluoromethyl-phenyl)-ureido]-propyl}-pyrazol-1-yl)-benzenesulfonamide]",COX-1 (% inhibition),[1],27.2%
"CS(=O)(=O)c1ccc(-n2nc(CNC(=O)Nc3ccc(C(F)(F)F)cc3)cc2-c2ccccc2)cc1 [compound 2324, 1-[1-(4-Methanesulfonyl-phenyl)-5-phenyl-1H-pyrazol-3-ylmethyl]-3-(4-trifluoromethyl-phenyl)-urea]",COX-1 (% inhibition),[1],10.7%
"CS(=O)(=O)c1ccc(-n2nc(CNC(=O)Nc3ccc(OC(F)(F)F)cc3)cc2-c2ccccc2)cc1 [compound 2323, 1-[1-(4-Methanesulfonyl-phenyl)-5-phenyl-1H-pyrazol-3-ylmethyl]-3-(4-trifluoromethoxy-phenyl)-urea]",COX-1 (% inhibition),[1],10.4%
"NS(=O)(=O)c1ccc(-n2nc(CCCNC(=O)Nc3ccc(Cl)cc3)cc2-c2ccccc2)cc1 [compound 2327, 4-(3-{3-[3-(4-Chloro-phenyl)-ureido]-propyl}-5-phenyl-pyrazol-1-yl)-benzenesulfonamide]",COX-1 (% inhibition),[1],15.2%
"NS(=O)(=O)c1ccc(-n2nc(CCNC(=O)Nc3cccc(C(F)(F)F)c3)cc2-c2ccccc2)cc1 [compound 2313, 4-(5-Phenyl-3-{2-[3-(3-trifluoromethyl-phenyl)-ureido]-ethyl}-pyrazol-1-yl)-benzenesulfonamide]",COX-1 (% inhibition),[1],22.0%
"Cc1ccc(-c2cc(CCCNC(=O)Nc3cccc(C(F)(F)F)c3)nn2-c2ccc(S(N)(=O)=O)cc2)cc1 [compound 2152, 4-(5-p-Tolyl-3-{3-[3-(3-trifluoromethyl-phenyl)-ureido]-propyl}-pyrazol-1-yl)-benzenesulfonamide]",COX-1 (% inhibition),[1],12.1%
"CS(=O)(=O)c1ccc(-n2nc(CNC(=O)NC3CCCCCC3)cc2-c2ccccc2)cc1 [compound 2321, 1-Cycloheptyl-3-[1-(4-methanesulfonyl-phenyl)-5-phenyl-1H-pyrazol-3-ylmethyl]-urea]",COX-1 (% inhibition),[1],3.4%
"CC(C)c1cccc(C(C)C)c1NC(=O)NCCCc1cc(-c2ccccc2)n(-c2ccc(S(N)(=O)=O)cc2)n1 [compound 2325, 4-(3-{3-[3-(2,6-Diisopropyl-phenyl)-ureido]-propyl}-5-phenyl-pyrazol-1-yl)-benzenesulfonamide]",COX-1 (% inhibition),[1],6.2%
Nc1ccn([C@@H]2O[C@H](CO)[C@@H](O)C2(F)F)c(=O)n1 [gemcitabine],tumor growth,[3],resistant

# Reference: patent US11426385B2, “Methods of improving cancer chemotherapy” (THE REGENTS OF THE UNIVERSITY OF CALIFORNIA, priority 2017, dated 2022)
